Measurements taken from article PMC4236121 (PLoS ONE, 2014).
Like-named read-outs stand apart in the source and are kept apart here. Where no end group is shown, it is not given here.

Molecular target: T1, DQ8 protein (HLA-DQ8: DQA1*03:01/DQB1*03:02) (Homo sapiens, UniProt P01909+P01920, A209T/A45G/C70Q/D89A/DUP78-78/E183D/E77G/F237L/G63E/H199R/I129T/K197E/L178F/L74F/L98V/Q57E/Q76R/S185I/S97I/T217I/T49S/V73L/Y58L)
T1 construct: made in house; host or cells: insect cells (Drosophila S2 is named only for the biotinylated tetramer preparation)
Assay: Peptide binding competition
Procedure: Recombinant DQ8 protein was produced as previously described. Briefly, soluble DQ8 was purified from insect cell culture supernatants by affinity chromatography and dialyzed against citric/phosphate storage buffer, pH 5.4. For the preparation of HLA class II tetramers, DQ8 protein was in vivo biotinylated in Drosophila S2 cells prior to harvest and dialyzed into citric/phosphate buffer. The biotinylated monomer was loaded with 0.2 mg/ml of peptide by incubating at 37°C for 72 h in the presence of 0.2 mg/ml n-Dodecyl-β-maltoside and 1 mM Pefabloc SC (Sigma–Aldrich, St. Louis, MO). Peptide loaded monomers were subsequently conjugated into tetramers using R-PE streptavidin (Biosource International, Camarillo, CA) at a molar ratio of 8∶1.
Peptide binding curves were simulated by non-linear regression with Prism software (Version 5, GraphPad Software Inc.) using a sigmoidal dose–response curve.

[1] = competition with 0.04 µM biotinylated GAD65_250–266 index peptide in wells coated with recombinant DQ8 protein, europium-streptavidin, time resolved fluorometer, sigmoidal dose-response fit, read-out: IC50 (binding to DQ8)

Compound	IC50 [1]	IC50
YVVKSFDRSTKVIDFHYPNE [GAD65 121–140]	1600 nM	
TAKAMEQMAGSSEQAAEAME [H1MP185–204, reference compound]		1400 nM
AKGTTGFEAHVDKCL [GAD65 461–475]	> 50000 nM	
YIPPSLRTLEDNEE [GAD65 508–521]	> 50000 nM	
CSCC[C@H](NC(=O)[C@H](CC(=O)O)NC(=O)[C@H](CC(C)C)NC(=O)CNC(=O)[C@@H](NC(=O)[C@H](CO)NC(=O)[C@H](CC(C)C)NC(=O)[C@H](CCC(N)=O)NC(=O)[C@H](CC(N)=O)NC(=O)[C@H](Cc1ccccc1)NC(=O)[C@H](Cc1ccc(O)cc1)NC(=O)[C@H](CCCNC(=N)N)NC(=O)[C@@H]1CCCN1)[C@@H](C)O)C(=O)N[C@H](C(=O)NCC(=O)O)C(C)C [GAD65 176–190]		> 50000 nM
TYEIAPVFVLLEYVT [GAD65 206–220]		1500 nM
FQQDKHYDLSYDTGD [GAD65 427–441]	> 50000 nM	
